One block for each compound: values may come before it.
Tests used:
[1] = test system: adipocytes from Lgals12^+/+ and Lgals12^−/− mice; experiment: Lipolysis assay in primary adipocytes from Lgals12+/+ and Lgals12−/− mice (glycerol release); assay type: cell-based, mouse; settings: for lipolysis (glycerol release): 1 h, 37° C.; for cAMP/dbcAMP-stimulated lipolysis: in the presence of adenylyl cyclase inhibitor SQ 22536, FIG. 9G
Method: (A) Adipocytes from the epididymal fat depots of Lgals12^+/+ and Lgals12^-/- mice were incubated with indicated concentrations of isoproterenol before being separated into cytosol and fat cake. Lipolytic proteins in each fraction were analyzed by Western blotting with indicated antibodies. (B) Quantification of lipid droplet (LD)-associated p-HSL and HSL by densitometry of Western blots (n=3 for each genotype). […] (D) Quantification of LD-associated ATGL by densitometry of Western blots (n=3 for each genotype). […] Asterisks denote statistical significance (p<0.05). Results are representative of three experiments. FIGS. 10A-C illustrate (A) Adipocytes from Lgals12^+/+ and -/- mice (n=3) were incubated with 1 U/ml ADA and increasing concentrations of PIA for 1 h at 37° C. and glycerol release was measured. Results were expressed as both absolute values and as % of glycerol release in the absence of PIA. (B) Adipocytes from Lgals12+/+ and Lgals12^-/- mice (n=3 each) were incubated with or without 10 μM cilostamide (Cilo) or 25 μM rolipram (Roli), individually or in combination, for 2 h at 37° C. Lipolysis was determined by measuring glycerol release. (C) Insulin suppression of lipolysis in adipocytes stimulated with 20 nM isoproterenol (% of maximal release in the absence of insulin). Asterisks denote statistical significance (p<0.05). Similar results were obtained in three experiments. Adipocytes were isolated from gonadal fat depots in Krebs-Ringer HEPES (KRH) buffer by collagenase digestion and floatation ([…] Lipid Res 47:1859-1864). After the final wash, cell density and triglyceride content of the adipocyte suspension were determined as described (Fine […] (1997) Int J Obes Relat Metab Disord 21:764-768.). We monitored lipolysis in adipocytes isolated from random-fed Lgals12^+/+ and Lgals12^-/- mice on regular diet, by measuring fatty acid and glycerol release, as described ([…] Lipid Res 47:1859-1864), with minor modifications. Briefly, 2.5×10^5 cells were incubated in 0.3 ml KRH/3% FAA-free BSA (for basal lipolysis), or KRH/3% FAA-free BSA containing indicated concentrations of lipolysis stimulators or inhibitors (Sigma) for 0-2 h at 37° C. with shaking at 150 rpm. At the end of the incubation, glycerol and NEFA released into the infranatant was determined with the Free Glycerol Reagent (Sigma) and the Nonesterified Fatty Acids Kit ([…]), respectively.

galectin-12 [2] = molecular target: T1, galectin-12 (Mus musculus, UniProt Q91VD1); experiment: Association of galectin-12 with lipid droplets purified from mouse adipocyte homogenates; settings: lactose 25 mM present during lipid droplet purification; FIG. 5B
T1 construct: from tissue; host or cells: primary mouse adipocytes from epididymal fat depot
T1 sequence (Q91VD1 1-314): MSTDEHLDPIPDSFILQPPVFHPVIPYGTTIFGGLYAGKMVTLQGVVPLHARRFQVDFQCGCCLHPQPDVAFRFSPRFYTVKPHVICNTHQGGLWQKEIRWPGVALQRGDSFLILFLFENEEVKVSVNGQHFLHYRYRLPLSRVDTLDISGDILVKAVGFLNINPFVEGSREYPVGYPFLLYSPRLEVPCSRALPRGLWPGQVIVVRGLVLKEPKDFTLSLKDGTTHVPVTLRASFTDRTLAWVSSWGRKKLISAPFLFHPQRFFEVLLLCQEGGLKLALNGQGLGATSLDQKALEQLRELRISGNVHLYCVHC
Method: (§1) FIGS. 5A-B illustrate association of galectin-12 with lipid droplets is not inhibited by lactose. (A) Mouse adipocytes from epididymal fat depot were lyzed and the lysates were incubated with fetuin-agarose, in the absence (−) or presence (+) of 25 mM lactose. Bound proteins were eluted with SDS-sample buffer and galectin-12 was detected by Western blotting. (B) Lipd droplets were purified from mouse adipocyte homogenates in the absence (−) or presence (+) of 25 mM lactose. Galectin-12 was detected as in (A).
(§2) To test whether galectin-12 association with lipid droplets is glycan-dependent, we also purified lipid droplets in the presence of lactose.

galectin-12 [3] = molecular target: T1, galectin-12; experiment: Binding of galectin-12 from mouse adipocyte lysates to fetuin-agarose (Western blotting); settings: lactose 25 mM; mouse epididymal adipocyte lysates; FIG. 5A
Method: as §1, §2

Compound: CC(Cc1ccccc1)Nc1ncnc2c1ncn2[C@@H]1O[C@H](CO)[C@@H](O)[C@H]1O (single isomer, unassigned; (-)) [PIA, (−)-N6-(2-Phenylisopropyl)adenosine]
lipolysis (glycerol release) ([1]; increasing concentrations of PIA with 1 U/ml ADA, FIG. 10A): suppressed lipolysis in both genotypes with similar efficiencies

Compound: CC(C)Cn1c(=O)n(C)c(=O)c2[nH]cnc21 [IBMX, 3-isobutyl-1-methylxanthine]
lipolysis (glycerol release) ([1]; 0.1 mM IBMX, both Lgals12+/+ and Lgals12−/− adipocytes, FIG. 9F): greatly enhanced

galectin-12 association with lipid droplets (galectin-12 [2]): did not affect
binding of galectin-12 to fetuin-agarose (galectin-12 [3]): completely inhibited
Compound: OC[C@H]1O[C@@H](O[C@H]2[C@H](O)[C@@H](O)C(O)O[C@@H]2CO)[C@H](O)[C@@H](O)[C@H]1O (stereo partly shown) [Lactose]

Compound: Nc1ncnc2c1ncn2[C@@H]1O[C@@H]2COP(=O)(O)O[C@H]2[C@H]1O [cAMP, cyclic adenosine monophosphate]
cAMP/dbcAMP-stimulated lipolysis [1]: stimulated greater lipolysis in Lgals12^−/− adipocytes than in Lgals12^+/+ adipocytes

Compound: CCCC(=O)Nc1ncnc2c1ncn2[C@@H]1O[C@@H]2COP(=O)(O)O[C@H]2[C@H]1OC(=O)CCC [dbcAMP, dibutyryl cAMP]
cAMP/dbcAMP-stimulated lipolysis [1]: induced comparable lipolysis in adipocytes of the two genotypes

Compound: insulin
insulin suppression of lipolysis ([1]; Lgals12−/− adipocytes stimulated with 20 nM isoproterenol, FIG. 10C): remained sensitive
